The text below walks through data of US8349836B2, “Phthalazine derivatives as inhibitors of protein kinase” (priority 2006, dated 2013).

The test deals with p70S6K(h) (Homo sapiens, UniProt P23443). The test can be described thus: Enzyme Inhibition Assay (p70S6K(h)). It is filed as biochemical. The following applies: at 0.3 μM concentration. The method, then: Enzyme Inhibition Assay (p70S6K(h))
In a final reaction volume of 25 uL, p70S6K(h) (5-10 mU) is incubated with 8 mM MOPS pH 7.0, 0.2 mM EDTA, 100 iM KKRNRTLTV, 10 mM MgAcetate and [gamma-33P-ATP] (specific activity approx. 500 cpm/pmol, concentration as required). The reaction is initiated by the addition of the MgATP mix. After incubation for 40 minutes at room temperature, the reaction is stopped by the addition of 5 uL of a 3% phosphoric acid solution. 10 uL of the reaction is then spotted onto a P30 filtermat and washed three times for 5 minutes in 75 mM phosphoric acid and once in methanol prior to drying and scintillation counting.

Bounds are passed on as bounds.

Chain of p70S6K(h) (P23443 whole entry): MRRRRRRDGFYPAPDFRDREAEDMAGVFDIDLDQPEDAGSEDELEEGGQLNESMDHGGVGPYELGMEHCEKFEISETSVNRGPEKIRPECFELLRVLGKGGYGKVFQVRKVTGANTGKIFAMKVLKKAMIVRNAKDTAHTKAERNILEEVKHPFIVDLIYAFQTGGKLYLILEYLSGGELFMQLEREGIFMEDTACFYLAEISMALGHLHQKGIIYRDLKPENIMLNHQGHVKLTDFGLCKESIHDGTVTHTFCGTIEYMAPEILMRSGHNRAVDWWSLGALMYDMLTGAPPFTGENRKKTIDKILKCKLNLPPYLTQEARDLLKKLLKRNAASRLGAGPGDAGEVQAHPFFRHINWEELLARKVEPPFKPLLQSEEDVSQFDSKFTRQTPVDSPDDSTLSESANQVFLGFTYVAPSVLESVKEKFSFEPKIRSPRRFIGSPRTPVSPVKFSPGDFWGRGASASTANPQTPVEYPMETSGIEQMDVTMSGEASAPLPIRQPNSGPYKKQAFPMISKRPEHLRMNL

Consider `Oc1nnc(Cl)c2cc(NCc3cccc(C(F)(F)F)c3)ccc12` [Example 24, 4-chloro-6-(3-trifluoromethyl-benzylamino)-phthalazin-1-ol], for which the inhibition (commonly the percentage by which the read-out fell short of the control) at 0.3 µM is over 50%. The same measure for `O=C(Nc1cccc(C(F)(F)F)c1)c1ccc2c(O)nnc(Cl)c2c1` [Example 26, 4-Chloro-1-hydroxy-phthalazine-6-carboxylic acid (3-trifluoromethyl-phenyl)-amide]: over 50%.

Compound `O=C(Nc1cccc(C(F)(F)F)c1)c1ccc2c(O)nnc(I)c2c1` [Example 42, 4-Iodo-1-hydroxy-phthalazine-6-carboxylic acid (3-trifluoromethyl-phenyl)-amide] yielded an inhibition at 0.3 µM of over 50%. The same measure for `O=c1[nH]nc(Cl)c2ccc(Nc3cccc(C(F)(F)F)c3)cc12` [Example 64, 4-Chloro-7-(3-trifluoromethyl-phenylamino)-2H-phthalazin-1-one]: over 50%; for `O=c1[nH]nc(Cl)c2cc(NCc3cccc4c3OCCCO4)ccc12` [Example 107, 4-Chloro-6-[(3,4-dihydro-2H-benzo[b][1,4]dioxepin-6-ylmethyl)-amino]-2H-phthalazin-1-one]: over 50%; for `O=c1[nH]nc(Cl)c2cc(N3CCN(c4ccccc4)CC3)ccc12` [Example 126, 4-Chloro-6-(4-phenyl-piperazin-1-yl)-2H-phthalazin-1-one]: over 50%.
